Assay results published in patent EP0367040A1, “Compounds for the treatment of urinary incontinence” (Kabi Pharmacia AB, priority 1988, dated 1990).
Read-outs that look alike come from different tables or passages of the source.

How the values were obtained:
rabbit portal vein = assay: Electrically induced submaximal contractions of isolated portal vein; type: cell-based; conditions: Oryctolagus cuniculus, read-out: El.stim. portal vein % inhibition by 1 µM
rabbit urinary bladder [1] = assay: Anticholinergic effect on carbachol-stimulated isolated urinary bladder strips; type: cell-based; conditions: Oryctolagus cuniculus, read-out: Carbachol stim.rabbit urinary bladder KD
Method: (§1) Carbachol was used as an agonist and was added to the organ bath cumulatively.

rabbit papillary muscles = assay: Electrically stimulated isolated papillary muscle (heart), contraction amplitude; type: cell-based; conditions: Oryctolagus cuniculus, read-out: El.stim. papillary muscle, % inhibition of 1 µM
Text: The effects on heart were investigated by using isolated, rabbit papillary muscles, which were electrically stimulated at a submaximum frequency. The contraction amplitude was re­corded.

muscarinic receptors = assay: Selectivity factor: isolated human urinary bladder versus human salivary gland (QNB radioligand); type: binding; conditions: quotient of inhibitory concentration on isolated human urinary bladder and human salivary gland; lower figure = higher selectivity for the bladder
Text: The human salivary glands were obtained from patients undergoing operation for treatment of cancer in these glands. As the radioligand by which the muscarinic receptors were label led, QNB was used. The method is described in detail by S. Batra et al. in Psychopharmacology, 1986, 90, 1-4.

albino mice = assay: Mydriatic effect, pupil diameter in unanaesthetized mice after intravenous dosing; type: in vivo
Method: For studying the mydriatic effect of the compounds un­anaesthetized albino mice were used. The substance was given intravenously in different doses and the pupil diame­ter was measured by means of a microscope every tenth minute until the effect disappeared.

rabbit urinary bladder [2] = assay: Inhibition of electrically induced contractions of isolated urinary bladder strips; type: cell-based; conditions: Oryctolagus cuniculus; electrically stimulated isolated rabbit bladder strips; only about half of the contractile response is mediated by cholinergic nerves; read-out: El.stim. rabbit urinary bladder IC50
Method: as §1

[3] = 1 µM, isolated rabbit portal vein, electrically stimulated
[4] = carbachol as agonist, added cumulatively, isolated rabbit bladder strips
[5] = 1 µM, isolated rabbit papillary muscle, electrically stimulated

| Selectivity factor for human urinary bladder in comparison with human salivary gland (muscarinic receptors) | IC50 (rabbit urinary bladder [2]) | Structure (SMILES) | inhibition at 1 µM (rabbit portal vein) | Kb (rabbit urinary bladder [1]) | inhibition at 1 µM (rabbit papillary muscles) | inhibition at 1 µM (rabbit portal vein; [3]) | Mydriatic effect, % dilatation by 1 mg/kg i.v. (albino mice) | Kb (rabbit urinary bladder [1]; [4]) | inhibition at 1 µM (rabbit papillary muscles; [5]) |
| --- | --- | --- | --- | --- | --- | --- | --- | --- | --- |
|  |  | CN1[C@@H]2CC[C@H]1C[C@@H](OC(=O)C(CO)c1ccccc1)C2 (stereo partly shown) [Atropine, reference compound] | 20% | 2 nM | 5% |  |  |  |  |
| 6 | 8.5 µM | CC(C)N(CCN(C)C(=O)C(c1ccccc1)c1ccccc1)C(C)C.Cl [Example No 3, N-methyl-N-(2-diisopropylaminoethyl)-2,2-diphenyl-acetamide hydrochloride] |  |  |  | 10% | 2% | 60 nM | 8% |
| 5 | 35.2 µM | CC(C)N(CCCN(C)C(=O)C(c1ccccc1)c1ccccc1)C(C)C [Example No 4, N-methyl-N-(3-diisopropylaminopropyl)-2,2 diphenylacetamide] |  |  |  | 4% | 0% | 550 nM | 9% |
| 2 | 25.7 µM | CN(CCCN(C)C(C)(C)C)C(=O)C(c1ccccc1)c1ccccc1.Cl [Example No 7, N-methyl-N-[3-(N-methyl-N-tert-butyl-amino)propyl]-2,2-diphenylacetamide hydrochloride] |  |  |  | 4% | 0% | 2900 nM | 0% |
| 6 | 5.3 µM | CC(C)N(CCNC(=O)C(c1ccccc1)c1ccccc1)C(C)C [Example No 10, N-(2-diisopropylaminoetyl)-2,2-diphenylacetamide] |  |  |  | 10% | 11% | 110 nM | 0% |
|  |  | CCN(CC)CC#CCOC(=O)C(O)(c1ccccc1)C1CCCCC1 (stereo not shown) [Oxybutynin, 2-cyclohexyl-2-hydroxy-2-phenylacetic acid 4-(diethylamino)-2-butynyl ester, reference compound] | 6% | 6 nM | 3% |  | 95% |  |  |
| 93 | 14.5 µM | CC(CC(c1ccccc1)c1ccccc1)NC(C)(C)C (stereo not shown) [Terodiline, N-t-butyl-3,3-diphenyl-1-methylpropylamine, reference compound] |  |  |  | 4% | 1% | 220 nM | 14% |
